Measurements reported in ChEMBL document CHEMBL1126549, “A novel series of selective, non-peptide inhibitors of angiotensin II binding to the AT2 site” (J Med Chem, 1993).

Tests used:
[1] = target: T1, Type-2 angiotensin II receptor (Rattus norvegicus, UniProt P35351); assay: Binding affinity towards Angiotensin II receptor, type 2 in rat isolated adrenal medullary microsomes; design: species or system Adrenal medulla, Microsome
T1 sequence (P35351 whole entry): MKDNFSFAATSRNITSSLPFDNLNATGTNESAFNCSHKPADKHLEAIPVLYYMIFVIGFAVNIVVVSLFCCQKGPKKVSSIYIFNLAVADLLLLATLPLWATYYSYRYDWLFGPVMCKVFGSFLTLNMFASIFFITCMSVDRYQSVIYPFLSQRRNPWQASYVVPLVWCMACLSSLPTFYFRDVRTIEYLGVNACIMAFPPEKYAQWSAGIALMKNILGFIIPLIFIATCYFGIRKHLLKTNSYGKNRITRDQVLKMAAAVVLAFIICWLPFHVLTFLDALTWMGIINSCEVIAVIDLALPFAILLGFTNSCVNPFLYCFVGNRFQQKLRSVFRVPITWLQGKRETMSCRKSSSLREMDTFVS

[2] = target: T2, Angiotensin II receptor (AT-1) type-1 (Rattus norvegicus, UniProt P29089+P25095); assay: Binding affinity towards Angiotensin II receptor, type 1 in rat isolated adrenal cortical microsomes; design: species or system Microsome
T2 sequence (P29089 whole entry): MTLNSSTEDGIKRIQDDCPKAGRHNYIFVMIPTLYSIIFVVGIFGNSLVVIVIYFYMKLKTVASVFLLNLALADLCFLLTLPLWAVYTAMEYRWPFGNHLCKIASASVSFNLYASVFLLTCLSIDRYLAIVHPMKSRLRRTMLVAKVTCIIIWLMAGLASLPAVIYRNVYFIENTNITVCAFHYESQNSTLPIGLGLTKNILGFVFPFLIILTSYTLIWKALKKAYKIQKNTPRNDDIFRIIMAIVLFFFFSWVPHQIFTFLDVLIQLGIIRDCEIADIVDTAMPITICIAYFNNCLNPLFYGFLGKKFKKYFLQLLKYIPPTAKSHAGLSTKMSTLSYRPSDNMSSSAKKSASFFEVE
T2 sequence (P25095 whole entry): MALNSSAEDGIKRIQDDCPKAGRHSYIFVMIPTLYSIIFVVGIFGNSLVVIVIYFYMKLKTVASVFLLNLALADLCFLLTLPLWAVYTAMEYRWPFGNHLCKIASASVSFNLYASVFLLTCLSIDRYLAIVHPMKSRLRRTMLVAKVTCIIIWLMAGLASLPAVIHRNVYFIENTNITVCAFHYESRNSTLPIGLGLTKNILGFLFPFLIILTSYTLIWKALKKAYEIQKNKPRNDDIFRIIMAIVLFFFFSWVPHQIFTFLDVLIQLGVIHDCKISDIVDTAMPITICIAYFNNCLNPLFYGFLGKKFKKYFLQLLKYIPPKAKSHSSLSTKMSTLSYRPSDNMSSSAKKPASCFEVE

[3] = target: T1, Type-2 angiotensin II receptor; assay: Binding affinity towards angiotensin II AT2 receptor subtype was determined using rat isolated adrenal […] microsomes

| Structure (SMILES) | IC50 [1] [nM] | IC50 [2] [nM] | IC50 [3] [nM] |
| --- | --- | --- | --- |
| COC(=O)C1Cc2c(C)cccc2CN1C(=O)C(c1ccccc1)c1ccccc1 (centres undefined) | 5000 | > 10000 |  |
| Cc1cccc2c1CC(C(=O)O)N(C(=O)C(c1ccccc1)c1ccccc1)C2 (centres undefined) | 300 | > 10000 |  |
| O=C(O)C1Cc2c(cccc2-c2ccccc2)CN1C(=O)C(c1ccccc1)c1ccccc1 (centres undefined) | 40 | > 10000 |  |
| COC(=O)C1Cc2c(Cc3ccc(OC)cc3)cccc2CN1C(=O)C(c1ccccc1)c1ccccc1 (centres undefined) | > 10000 | > 10000 |  |
| O=C(O)C1Cc2ccccc2CN1C(=O)C(c1ccccc1)c1ccccc1 (centres undefined) | 2500 | > 30000 |  |
| O=C(O)C1Cc2cc(-c3ccccc3)ccc2CN1C(=O)C(c1ccccc1)c1ccccc1 (centres undefined) | 30 | > 10000 |  |
| CN(C(=O)N1Cc2ccc(Oc3ccccc3)cc2CC1C(=O)O)c1ccccc1 (centres undefined) | 300 | > 10000 |  |
| COc1ccc(Cc2cccc3c2CC(C(=O)O)N(C(=O)N(c2ccccc2)c2ccccc2)C3)cc1 (centres undefined) | 200 | 10000 |  |
| COc1ccc(Cn2cnc3c2C[C@@H](C(=O)O)N(C(=O)C(c2ccccc2)c2ccccc2)C3)cc1C |  |  | 10 |
| CCCCCc1cccc2c1CC(C(=O)O)N(C(=O)C(c1ccccc1)c1ccccc1)C2 (centres undefined) | 40 | > 10000 |  |
| COc1ccc(Cc2cccc3c2CC(C(=O)O)N(C(=O)C(c2ccccc2)c2ccccc2)C3)cc1C (centres undefined) | 100 | 5000 |  |
| COc1ccc(Cc2cccc3c2CC(C(=O)O)N(C(=O)C(c2ccccc2)c2ccccc2)C3)cc1 (centres undefined) | 90 | 7000 |  |
| COc1ccc(-c2cccc3c2CC(C(=O)O)N(C(=O)C(c2ccccc2)c2ccccc2)C3)cc1C (centres undefined) | 70 | > 10000 |  |
| COC(=O)C1Cc2c(Cc3ccccc3)cccc2CN1C(=O)C(c1ccccc1)c1ccccc1 (centres undefined) | 7000 | > 10000 |  |
| COc1ccc(Cc2cccc3c2CC(C(=O)O)N(C(=O)N(C)c2ccccc2)C3)cc1 (centres undefined) | 400 | > 10000 |  |
| O=C(O)C1Cc2cc(Oc3ccccc3)ccc2CN1C(=O)C(c1ccccc1)c1ccccc1 (centres undefined) | 60 | > 10000 |  |
| COc1ccc(-c2cccc3c2CC(C(=O)O)N(C(=O)C(c2ccccc2)c2ccccc2)C3)cc1 (centres undefined) | 40 | 10000 |  |
| O=C(O)C1Cc2cc(O)ccc2CN1C(=O)C(c1ccccc1)c1ccccc1 (centres undefined) | 600 | > 10000 |  |
| COC(=O)C1Cc2c(cccc2-c2ccc(OC)cc2)CN1C(=O)C(c1ccccc1)c1ccccc1 (centres undefined) | 2000 | > 10000 |  |
| COC(=O)C1Cc2c(cccc2-c2ccccc2)CN1C(=O)C(c1ccccc1)c1ccccc1 (centres undefined) | 2000 | > 10000 |  |
| O=C(O)C1Cc2c(Cc3ccccc3)cccc2CN1C(=O)C(c1ccccc1)c1ccccc1 (stereo in doubt; 21) | 90 | 10000 |  |
| O=C(O)C1Cc2c(Cc3ccccc3)cccc2CN1C(=O)C(c1ccccc1)c1ccccc1 (stereo in doubt; 22) | 70 |  |  |
| O=C(O)C1Cc2c(Cc3ccccc3)cccc2CN1C(=O)C(c1ccccc1)c1ccccc1 (stereo in doubt; 23) | 80 | 4000 |  |
